Data published in ChEMBL document CHEMBL3232776, “Emergence of pyrido quinoxalines as new family of antimalarial agents” (Eur J Med Chem, 2014).
pIC50: −log10 of the molar value. Calls of active or inactive are those of the source. The rule behind the calls is not given here.

Legend:
Plasmodium falciparum [1] = test: Antimalarial activity against chloroquine-sensitive Plasmodium falciparum 3D7 infected in human erythrocytes assessed as parasite growth inhibition after 50 hrs by SYBR Green1 dye-based fluorescence assay; format: functional, organism-based; conditions: for pIC50: Plasmodium falciparum, 3D7, 50 h, read-out: IC50
[2] = Solubility of the compound at 93 uM; format: physicochemical
Plasmodium falciparum [3] = test: Potency index, ratio of ciprofloxacin IC50 to compound IC50 for chloroquine-sensitive Plasmodium falciparum 3D7 infected in human erythrocytes; format: functional
Plasmodium falciparum [4] = test: Potency index, ratio of ciprofloxacin IC50 to compound IC50 for chloroquine-resistant Plasmodium falciparum Dd2 infected in human erythrocytes; format: functional
[5] = Selectivity index, ratio of IC50 for human THP1 cells to IC50 for chloroquine-sensitive Plasmodium falciparum 3D7; format: toxicity, cell-based, THP-1; conditions: read-out: Ratio IC50
HepG2 = test: Cytotoxicity against human HepG2 cells assessed as cell viability after 72 hrs by MTT assay; format: cell-based; conditions: HepG2, 72 h
THP-1 = test: Cytotoxicity against human THP1 cells assessed as cell viability after 72 hrs by MTT assay; format: cell-based; conditions: THP-1, 72 h
[6] = Selectivity index, ratio of IC50 for human HepG2 cells to IC50 for chloroquine-sensitive Plasmodium falciparum 3D7; format: toxicity, cell-based; conditions: read-out: Ratio IC50
Plasmodium falciparum [7] = test: Antimalarial activity against chloroquine-resistant Plasmodium falciparum Dd2 infected in human erythrocytes assessed as parasite growth inhibition after 50 hrs by SYBR Green1 dye-based fluorescence assay; format: functional, cell-based; conditions: Dd2, 50 h
Plasmodium falciparum [8] = test: Antimalarial activity against blood stage form of Plasmodium falciparum assessed as incorporation of [3H]hypoxanthine after 72 hrs by liquid scintillation counting; format: functional, organism-based

For CCn1cc(C(=O)O)c(=O)c2c3nc(-c4ccccc4)c(-c4ccccc4)nc3ccc21, which “growth inhibition (GI)” value (Plasmodium falciparum [1]) is on record?
Its value is “inactive”.

What about the solubility [2] of the same compound?
Its solubility is “Insoluble”.

With O=C(O)c1cn(Cc2ccc(C(F)(F)F)cc2)c2ccc3nc(-c4ccc(F)cc4)c(-c4ccc(F)cc4)nc3c2c1=O as the compound, how does the pIC50 (Plasmodium falciparum [1]) read?
The pIC50 was less than 4.30.

With CCn1cc(C(=O)O)c(=O)c2c3nc(-c4ccc(F)cc4)c(-c4ccc(F)cc4)nc3ccc21 as the compound, how does the pIC50 (Plasmodium falciparum [1]) read?
The pIC50 was less than 4.30.

With CCOC(=O)c1cnc2ccc3nc(-c4ccccc4)c(-c4ccccc4)nc3c2c1O as the compound, how does the pIC50 (Plasmodium falciparum [1]) read?
Its pIC50 is 4.53.

What does the source list for CCOC(=O)c1cn(CC)c2ccc3nc(-c4ccc(F)cc4)c(-c4ccc(F)cc4)nc3c2c1=O?
Ratio IC50 (Plasmodium falciparum [3]): 2; pIC50 (Plasmodium falciparum [1]): 4.49; Ratio IC50 (Plasmodium falciparum [4]): 2

Which results are given for O=C(O)c1cn(Cc2ccc(C(F)(F)F)cc2)c2ccc3nc(-c4ccccc4)c(-c4ccccc4)nc3c2c1=O?
growth inhibition (GI) (Plasmodium falciparum [1]): inactive; solubility [2]: Insoluble

With CCOC(=O)c1cn(Cc2ccc(F)cc2)c2ccc3nc(-c4ccccc4)c(-c4ccccc4)nc3c2c1=O as the compound, how does the “Ratio IC50” value (Plasmodium falciparum [3]) read?
Its value is 3.3.

And the selectivity ratio [5]?
Its selectivity ratio is 28.8.

And the pIC50 (Plasmodium falciparum [1])?
Its pIC50 is 5.16.

And the pIC50 (HepG2)?
The pIC50 was 3.82.

What about the pIC50 (THP-1) of the same compound?
Its pIC50 is 3.70.

What about the “Ratio IC50” value (Plasmodium falciparum [4]) of the same compound?
Its value is 3.3.

And the selectivity ratio [6]?
Its selectivity ratio is 21.6.

And the pIC50 (Plasmodium falciparum [7])?
Its pIC50 is 5.20.

For CCOC(=O)c1cn(Cc2ccc(C(F)(F)F)cc2)c2ccc3nc(-c4ccc(F)cc4)c(-c4ccc(F)cc4)nc3c2c1=O, which “Ratio IC50” value (Plasmodium falciparum [3]) is on record?
The value was 2.

What about the pIC50 (Plasmodium falciparum [1]) of the same compound?
Its pIC50 is less than 4.30.

And the “Ratio IC50” value (Plasmodium falciparum [4])?
Its value is 2.

With CCCCn1cc(C(=O)O)c(=O)c2c3nc(-c4ccc(F)cc4)c(-c4ccc(F)cc4)nc3ccc21 as the compound, how does the pIC50 (Plasmodium falciparum [1]) read?
Its pIC50 is 4.39.

Which results are given for O=C(O)c1cn(Cc2ccc(F)cc2)c2ccc3nc(-c4ccccc4)c(-c4ccccc4)nc3c2c1=O?
growth inhibition (GI) (Plasmodium falciparum [1]): inactive; solubility [2]: Insoluble

For CCCCn1cc(C(=O)OCC)c(=O)c2c3nc(-c4ccccc4)c(-c4ccccc4)nc3ccc21, which “Ratio IC50” value (Plasmodium falciparum [3]) is on record?
The value was 2.

What about the pIC50 (Plasmodium falciparum [1]) of the same compound?
Its pIC50 is 5.04.

And the “Ratio IC50” value (Plasmodium falciparum [4])?
The value was 2.

Which “Ratio IC50” value (Plasmodium falciparum [3]) does the source give for CCOC(=O)c1cn(Cc2ccc(F)cc2)c2ccc3nc(-c4ccc(F)cc4)c(-c4ccc(F)cc4)nc3c2c1=O here?
The value was 2.

And the selectivity ratio [5]?
Its selectivity ratio is 18.4.

And the pIC50 (Plasmodium falciparum [1])?
Its pIC50 is 5.12.

And the pIC50 (HepG2)?
Its pIC50 is 3.70.

What about the pIC50 (THP-1) of the same compound?
Its pIC50 is 3.85.

And the “Ratio IC50” value (Plasmodium falciparum [4])?
The value was 2.

What about the selectivity ratio [6] of the same compound?
Its selectivity ratio is 26.4.

What about the pIC50 (Plasmodium falciparum [7]) of the same compound?
Its pIC50 is 5.15.

For CCOC(=O)c1cn(CC)c2ccc3nc(-c4ccccc4)c(-c4ccccc4)nc3c2c1=O, which “Ratio IC50” value (Plasmodium falciparum [3]) is on record?
The value was 2.

What about the pIC50 (Plasmodium falciparum [1]) of the same compound?
The pIC50 was 4.81.

What about the “Ratio IC50” value (Plasmodium falciparum [4]) of the same compound?
The value was 2.

And the pIC50 (Plasmodium falciparum [7])?
The pIC50 was 4.95.

What does the source list for O=C(O)c1cn(C2CC2)c2cc(N3CCNCC3)c(F)cc2c1=O [CIPROFLOXACIN]?
selectivity ratio [5]: 2.61; pIC50 (Plasmodium falciparum [1]): 4.64; pIC50 (THP-1): 4.22; pIC50 (Plasmodium falciparum [8]): 4.70; pIC50 (Plasmodium falciparum [7]): 4.47

With CCOC(=O)C(=CNc1ccc2nc(-c3ccc(F)cc3)c(-c3ccc(F)cc3)nc2c1)C(=O)OCC as the compound, how does the pIC50 (Plasmodium falciparum [1]) read?
The pIC50 was 4.67.

Which results are given for C#CCn1cc(C(=O)O)c(=O)c2c3nc(-c4ccccc4)c(-c4ccccc4)nc3ccc21?
growth inhibition (GI) (Plasmodium falciparum [1]): inactive; solubility [2]: Insoluble

With CCOC(=O)C(=CNc1ccc2nc(-c3ccccc3)c(-c3ccccc3)nc2c1)C(=O)OCC as the compound, how does the pIC50 (Plasmodium falciparum [1]) read?
The pIC50 was 4.80.

What about the pIC50 (Plasmodium falciparum [7]) of the same compound?
Its pIC50 is 4.81.

With CCOC(=O)c1cnc2ccc3nc(-c4ccc(F)cc4)c(-c4ccc(F)cc4)nc3c2c1O as the compound, how does the pIC50 (Plasmodium falciparum [1]) read?
The pIC50 was 4.80.

And the pIC50 (Plasmodium falciparum [7])?
Its pIC50 is 4.57.

With Cc1c(F)c(N2CCNC(C)C2)cc2c1c(=O)c(C(=O)O)cn2C1CC1 (stereo not drawn) [GREPAFLOXACIN] as the compound, how does the pIC50 (Plasmodium falciparum [8]) read?
The pIC50 was 4.70.

Which “Ratio IC50” value (Plasmodium falciparum [3]) does the source give for CCCCn1cc(C(=O)OCC)c(=O)c2c3nc(-c4ccc(F)cc4)c(-c4ccc(F)cc4)nc3ccc21 here?
The value was 2.

What about the pIC50 (Plasmodium falciparum [1]) of the same compound?
The pIC50 was less than 4.30.

What about the “Ratio IC50” value (Plasmodium falciparum [4]) of the same compound?
Its value is 2.

For C#CCn1cc(C(=O)OCC)c(=O)c2c3nc(-c4ccccc4)c(-c4ccccc4)nc3ccc21, which “Ratio IC50” value (Plasmodium falciparum [3]) is on record?
The value was 2.

And the IC50 (Plasmodium falciparum [1])?
Its IC50 is “ND(Insoluble)”.

And the “Ratio IC50” value (Plasmodium falciparum [4])?
The value was 2.

And the solubility [2]?
The solubility was “Insoluble”.

With NC1CCN(c2c(F)cc3c(=O)c(C(=O)O)cn(C4CC4)c3c2Cl)C1 (stereo not drawn) [CLINAFLOXACIN] as the compound, how does the pIC50 (Plasmodium falciparum [8]) read?
The pIC50 was 4.70.

With O=C(O)c1cn(CC(F)(F)F)c2ccc3nc(-c4ccc(F)cc4)c(-c4ccc(F)cc4)nc3c2c1=O as the compound, how does the pIC50 (Plasmodium falciparum [1]) read?
The pIC50 was less than 4.30.

With COc1cccc2c1C(=O)c1c(O)c3c(c(O)c1C2=O)C[C@@](O)(C(=O)CO)C[C@@H]3O[C@H]1C[C@H](N)[C@H](O)[C@H](C)O1 [DOXORUBICIN] as the compound, how does the pIC50 (HepG2) read?
The pIC50 was 6.70.

What about the pIC50 (THP-1) of the same compound?
Its pIC50 is 7.30.

With O=C(O)c1cn(CC(F)(F)F)c2ccc3nc(-c4ccccc4)c(-c4ccccc4)nc3c2c1=O as the compound, how does the “growth inhibition (GI)” value (Plasmodium falciparum [1]) read?
Its value is “inactive”.

What about the solubility [2] of the same compound?
Its solubility is “Insoluble”.

With CCOC(=O)c1cn(CC(F)(F)F)c2ccc3nc(-c4ccccc4)c(-c4ccccc4)nc3c2c1=O as the compound, how does the “Ratio IC50” value (Plasmodium falciparum [3]) read?
Its value is 2.

What about the pIC50 (Plasmodium falciparum [1]) of the same compound?
Its pIC50 is 4.88.

What about the “Ratio IC50” value (Plasmodium falciparum [4]) of the same compound?
The value was 2.

With O=C(O)c1cn(Cc2ccc(F)cc2)c2ccc3nc(-c4ccc(F)cc4)c(-c4ccc(F)cc4)nc3c2c1=O as the compound, how does the pIC50 (Plasmodium falciparum [1]) read?
Its pIC50 is less than 4.30.

Which results are given for CCCCn1cc(C(=O)O)c(=O)c2c3nc(-c4ccccc4)c(-c4ccccc4)nc3ccc21?
growth inhibition (GI) (Plasmodium falciparum [1]): inactive; solubility [2]: Insoluble

Which “Ratio IC50” value (Plasmodium falciparum [3]) does the source give for CCOC(=O)c1cn(CC(F)(F)F)c2ccc3nc(-c4ccc(F)cc4)c(-c4ccc(F)cc4)nc3c2c1=O here?
Its value is 5.

What about the selectivity ratio [5] of the same compound?
The selectivity ratio was 70.2.

And the pIC50 (Plasmodium falciparum [1])?
Its pIC50 is 5.41.

And the pIC50 (HepG2)?
Its pIC50 is 3.60.

And the pIC50 (THP-1)?
Its pIC50 is 3.56.

And the “Ratio IC50” value (Plasmodium falciparum [4])?
The value was 5.

What about the selectivity ratio [6] of the same compound?
Its selectivity ratio is 63.8.

What about the pIC50 (Plasmodium falciparum [7]) of the same compound?
The pIC50 was 5.34.

Which results are given for C#CCn1cc(C(=O)OCC)c(=O)c2c3nc(-c4ccc(F)cc4)c(-c4ccc(F)cc4)nc3ccc21?
Ratio IC50 (Plasmodium falciparum [3]): 2; pIC50 (Plasmodium falciparum [1]): 4.73; Ratio IC50 (Plasmodium falciparum [4]): 2

With C#CCn1cc(C(=O)O)c(=O)c2c3nc(-c4ccc(F)cc4)c(-c4ccc(F)cc4)nc3ccc21 as the compound, how does the pIC50 (Plasmodium falciparum [1]) read?
The pIC50 was less than 4.30.

With CCn1cc(C(=O)O)c(=O)c2cc(F)c(N3CCNCC3)nc21 [ENOXACIN] as the compound, how does the pIC50 (Plasmodium falciparum [8]) read?
The pIC50 was 4.70.

Which “Ratio IC50” value (Plasmodium falciparum [3]) does the source give for CCOC(=O)c1cn(Cc2ccc(C(F)(F)F)cc2)c2ccc3nc(-c4ccccc4)c(-c4ccccc4)nc3c2c1=O here?
Its value is 2.

What about the IC50 (Plasmodium falciparum [1]) of the same compound?
Its IC50 is “ND(Insoluble)”.

And the “Ratio IC50” value (Plasmodium falciparum [4])?
Its value is 2.

What about the solubility [2] of the same compound?
The solubility was “Insoluble”.
